# Test results reported in patent US20260284043A1, “COMPOUNDS FOR UPREGULATING UTROPHIN LEVELS IN MUSCLE CELLS AND METHOD OF APPLICATION THEREOF” (Peptris Technologies Private Limited, priority 2023, published 2026).
# What was measured:
# Utrophin = Utrophin upregulation (mRNA fold change, RT-PCR) in differentiated C2C12 myoblast cells; type: cell-based, mouse; details: 24 hours; for fold change of utrophin: C2C12 myoblast cells differentiated seven days, 10 μM, FIG. 1
# Method: C2C12 myoblast cells are seeded in the well plate with a growth medium (10% FBS and DMEM). After they reached 70% confluence, the cells are added to the differentiation medium (2% HS and DMEM) and differentiated for seven days. Stock solutions are prepared for Sitagliptin and other DPP-IV inhibitors viz., Melogliptin, Linagliptin, Vildagliptin, and Teneligliptin in DMSO. The cells are treated with a final concentration of 10 μM stock solution for 24 hours. RNA isolation is carried out using the Qiagen assay kit and quantified using NanodropRT-PCR for Utrophin Upregulation.
# Using the same protocol for Example 1, C2C 12 myoblast cells are treated with sitagliptin for 24 hours. Ezutromid is a known utrophin up-regulator and used as a positive control. RNA isolation and RT-PCR are done to quantify the fold change in utrophin mRNA expression. FIG. 2 presents the fold change in mRNA expression of Utrophin on C2C12 mouse skeletal muscle myoblasts at 10 uM sitagliptin compared to 10 uM Ezutromid.
# D2.mdx mice [1] = test: Rotarod test in D2.mdx mice; type: in vivo, mouse; details: 50 mg/kg p.o. q.d., 28 days, FIG. 7
# Method: (§1) All the functional experimental parameters are evaluated in mdx background wild-type mice and in D2.mdx mice (D2.B10-DMD mdx/J mice procured from Jackson laboratories (Strain #013141), Bar Harbor, Maine (ME), USA 04609. The test item, Sitagliptin 50 mg/kg, is orally (p.o.) administered once daily (q.d.) at a dose volume of 10 mL/kg. Sitagliptin suspended in formulation containing 0.1% Tween 20 and 0.5% Carboxymethyl cellulose (CMC) is administered once daily for 28 days via the oral route. The wild-type control and mdx control groups received the vehicle (0.5% Carboxy methyl cellulose (CMC) containing 0.1% Tween 20) alone. Body weight of the study animals is recorded before the study (pre-dose) and twice weekly/daily throughout the study. Animals are also monitored for clinical signs, mortality, and morbidity. […] Muscle function is assessed through grip strength test using a Grip strength meter (Orchid Scientific, Model No.: […], India), hanging test, treadmill running, and rotarod test (Orchid Scientific, India) in response to Vehicle and Sitagliptin (50 mg/kg, p.o.) treatments. […] The efficacy of Sitagliptin is evaluated by comparing the functional test parameters and serum CK levels of the treated group with that of the mdx-control group in comparison to the basal value of Wild-type group. […]
# D2.mdx mice [2] = test: Treadmill test in D2.mdx mice; type: in vivo, mouse; details: 50 mg/kg p.o. q.d., 28 days, vs DMD-Control
# Method: as §1
# D2.mdx mice [3] = test: Hanging test in D2.mdx mice; type: in vivo, mouse; details: 50 mg/kg p.o. q.d., irrespective of treadmill stress, compared with wild type mice, FIGS. 6A and 6B
# Method: as §1
# D2.mdx mice [4] = test: Serum Creatinine Kinase level in D2.mdx mice after treadmill test; type: in vivo, mouse; details: 50 mg/kg p.o. q.d., 28 days, measured within 30 minutes after treadmill test, FIG. 8
# Method: All the functional experimental parameters are evaluated in mdx background wild-type mice and in D2.mdx mice (D2.B10-DMD mdx/J mice procured from Jackson laboratories (Strain #013141), Bar Harbor, Maine (ME), USA 04609. The test item, Sitagliptin 50 mg/kg, is orally (p.o.) administered once daily (q.d.) at a dose volume of 10 mL/kg. Sitagliptin suspended in formulation containing 0.1% Tween 20 and 0.5% Carboxymethyl cellulose (CMC) is administered once daily for 28 days via the oral route. The wild-type control and mdx control groups received the vehicle (0.5% Carboxy methyl cellulose (CMC) containing 0.1% Tween 20) alone. […] All three group mice (Wild-type, DMD-Control & DMD-Sitagliptin) underwent functional tests at week 0 (Basal-Day 0), week 2 (Day 14) and at the end of the study (week 4 or Day 28). […] Blood samples are collected for Creatine kinase (CK) analysis 30 min after Treadmill functional test on Day 0, 14 & Day 28. The efficacy of Sitagliptin is evaluated by comparing the functional test parameters and serum CK levels of the treated group with that of the mdx-control group in comparison to the basal value of Wild-type group. […] Treadmill, grip strength, hanging, rotarod, and creatine kinase tests are recorded on day 0, day 14 and day 28. […] Serum Creatinine Kinase level is measured within 30 minutes after the mice are subjected to Treadmill tests.
# D2.mdx mice [5] = test: Grip strength test in D2.mdx mice; type: in vivo, mouse; details: 50 mg/kg p.o. q.d., before treadmill stress, compared with wild type mice, FIG. 5A
# Method: as §1
# D2.mdx mice [6] = test: 28th day summary of functional tests in D2.mdx mouse models; type: in vivo; details: 50 mg/kg p.o. q.d., day 28, vs DMD disease control mice, FIG. 9A-9F
# Method: as §1
structure (smiles),measurement,setting,value
"N#C[C@@H]1C[C@H](F)CN1C(=O)CN[C@@H]1CC[C@H](Cn2cncn2)C1 [Melogliptin, (2S,4S)-4-fluoro-1-[2-[[(1R,3S)-3-(1,2,4-triazol-1-ylmethyl)cyclopentyl]amino]acetyl]pyrrolidine-2 carbonitrile]",fold change of utrophin,Utrophin,capable of upregulating utrophin levels
"N[C@@H](CC(=O)N1CCn2c(nnc2C(F)(F)F)C1)Cc1cc(F)c(F)cc1F [Sitagliptin, (R)-4-oxo-4-[3-(trifluoromethyl)-5,6-dihydro[1,2,4]triazolo[4,3-a]pyrazin-7(8H)-yl]-1-(2,4,5-trifluorophenyl)butan-2-amine]",latency to fall (rotarod),D2.mdx mice [1],sustained improvements in overall muscle coordination
same,fold change in mRNA expression of Utrophin compared to Ezutromid,"Utrophin; C2C12 mouse skeletal muscle myoblasts, 10 uM sitagliptin vs 10 uM Ezutromid (positive control), FIG. 2",superior upregulation of utrophin compared Ezutromid
same,fold change of utrophin,Utrophin,capable of upregulating utrophin levels
same,distance travelled in 30 mins (treadmill),D2.mdx mice [2]; FIG. 4A,significant and sustained improvement
same,time to exhaust (treadmill),D2.mdx mice [2]; FIG. 4B,significant and sustained improvement
same,hanging latency pre- and post-treadmill,D2.mdx mice [3],perform comparably with wild type mice
same,Serum Creatinine Kinase levels,D2.mdx mice [4],significant reductions
same,normalized grip strength pre-treadmill,D2.mdx mice [5],could grip as well as the wild type mice
same,"all functional parameters (distance travelled, time to exhaust, grip strength, hanging test), 28th day summary",D2.mdx mice [6],robust improvement in all the functional parameters
"CC#CCn1c(N2CCC[C@@H](N)C2)nc2c1c(=O)n(Cc1nc(C)c3ccccc3n1)c(=O)n2C [Linagliptin, 8-[(3R)-3-Aminopiperidin-1-yl]-7-(but-2-yn-1-yl)-3-methyl-1-[(4-methylquinazolin-2-yl)methyl]-3,7-dihydro-1H-purine-2,6-dione]",fold change of utrophin,Utrophin,capable of upregulating utrophin levels
"Cc1cc(N2CCN([C@@H]3CN[C@H](C(=O)N4CCSC4)C3)CC2)n(-c2ccccc2)n1 [Teneligliptin, {(2S,4S)-4-[4-(3-Methyl-1-phenyl-1H-pyrazol-5-yl)-1-piperazinyl]-2-pyrrolidinyl}(1,3-thiazolidin-3-yl)methanone]",fold change of utrophin,Utrophin,capable of upregulating utrophin levels
"N#C[C@@H]1CCCN1C(=O)CNC12CC3CC(CC(O)(C3)C1)C2 [Vildagliptin, (S)-1-[2-(3-Hydroxyadamantan-1-ylamino)acetyl]pyrrolidine-2-carbonitrile]",fold change of utrophin,Utrophin,capable of upregulating utrophin levels
